Values quoted from earlier work, collected in patent publication US9642356B2, “Maturation or ripening inhibitor release from polymer, fiber, film, sheet or packaging” (Cellresin Technologies, LLC, priority 2009, dated 2017).

SMILES: C1=CCC=C1 [Cyclopentadiene]
- blocking of ethylene binding (ethylene binding site): effective blocking agent for ethylene binding

SMILES: C=CCC [Example 1-butene, 1-butene]
- activity for inhibiting ethylene generation (ethylene generation): at least some measurable activity

SMILES: CC1=CC1 [Example 1-MCP, 1-methylcyclopropene]
- activity for inhibiting ethylene generation (ethylene generation): at least some measurable activity
